Consider ten molecules from ChEMBL document CHEMBL1201862, “PubChem BioAssay data set” (2004).

What all share (assay): NCI tumour cell line growth inhibition, 48 h
Test [1] has as its system NCI-H23.
For test [2], the system named is 786-0.
Test [3] relates to TK-10.
The subject of test [4] is COLO 205.
Test [5] concerns HOP-92.
In test [6] the test system is Hs-578T.
Test [7] relates to RPMI-8226.
The subject of test [8] is HT-29.
Test [9] relates to NCI-H522.
In test [10] the test system is HCT-116.
The test system of test [11] is MDA-MB-435.
The subject of test [12] is SK-MEL-28.
The test system of test [13] is BT-549.
Test [14] has as its system DU-145.
Test [15] deals with Malme-3M.
Test [16] relates to SNB-19.
Test [17] concerns T47D.
Test [18] concerns OVCAR-3.
In test [19] the test system is CAKI-1.

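Protocol summary: plate cells (96-well), add compound at 5 concentrations, incubate 48 h, interpolate endpoints linearly. Abbreviation: GI50, concentration required for 50% inhibition of growth.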 Calls of active or inactive are those of the source. Cut-off read from the data, not from the text of the source: active = GI50 up to about 1.1 µM and inactive = higher.

On to `CCOC(=O)c1cn2c(n1)sc1c(Cl)c(Cl)ccc12`, for which the GI50 was 29.4 µM (inactive) in test [1]; 7.66 µM (inactive) in [2]; 24.4 µM (inactive) in test [3]; 6.1 µM (inactive) in test [4]; 24.5 µM (inactive) in test [5]; 5.33 µM (inactive) in test [6]. Besides, the GI50 in test [7] was 5.02 µM (inactive); in test [8], 12 µM (inactive); in test [9], 4.11 µM (inactive); in test [10], 5.69 µM (inactive); in [11], 3.31 µM (inactive); in test [12], 20.8 µM (inactive). In addition, the GI50 in test [13] was 33 µM (inactive); in [14], 18.1 µM (inactive); in test [15] it was 1.96 µM (inactive); in test [16] it was 25.3 µM (inactive); in test [17] it was 0.91 µM (active); in [18], 11.1 µM (inactive). Besides, the GI50 in test [19] is 9.86 µM (inactive).

Take `CC(C)(C)N1C=[N+](C(C)(C)C)CC1`: the GI50 in test [1], in [2], in test [3], in [4], in test [5] and in [6] was > 100 µM (inactive) in each case. The GI50 in [7], in [8], in [9], in test [10], in [11] and in [12] was > 100 µM (inactive) each time. In addition, the GI50 in test [13], in test [14], in test [15], in test [16], in test [17] and in test [18] was > 100 µM (inactive) each time. Moreover, the GI50 in test [19] is > 100 µM (inactive).

For `c1ccc(CCCCNCc2cc(CNCCCCc3ccccc3)cc(CNCCCCc3ccccc3)c2)cc1`, the GI50 in [1] is 1.28 µM (inactive); in [2], 1.31 µM (inactive); in test [3] it was 1.82 µM (inactive); in [4], 0.366 µM (active); in test [5], 1.45 µM (inactive); in [6] it was 1.5 µM (inactive). Further, the GI50 is 0.16 µM (active) in test [7]; 1.02 µM (active) in test [8]; 0.667 µM (active) in test [9]; 1.97 µM (inactive) in test [10]; 1.21 µM (inactive) in test [11]; 0.948 µM (active) in test [12]. The GI50 in [13] is 1.63 µM (inactive); in test [14] it was 0.762 µM (active); in test [15] it was 1.76 µM (inactive); in [16], 0.714 µM (active); in test [17], 1.79 µM (inactive); in test [18] it was 1.47 µM (inactive). Also, in test [19], the GI50 is 1.86 µM (inactive).

As to `Nc1ccccc1/N=N/c1c(S(=O)(=O)O)cc2cc(S(=O)(=O)O)cc(O)c2c1O`, the GI50 in test [1] was > 100 µM (inactive); in test [2], 45.7 µM (inactive); in test [3], > 100 µM (inactive); in test [4], > 100 µM (inactive); in test [5], > 100 µM (inactive); in [6], > 100 µM (inactive). In addition, the GI50 in [7] is > 100 µM (inactive); in [8], > 100 µM (inactive); in test [9], > 100 µM (inactive); in [10], 26.2 µM (inactive); in [11] it was > 100 µM (inactive); in test [12] it was > 100 µM (inactive). Further, the GI50 in test [13], in test [14], in test [15], in test [16], in test [17] and in test [18] was > 100 µM (inactive) each time. The GI50 in [19] is > 100 µM (inactive).

Take `CC(N)/C(N)=N/O` (stereo not given): the GI50 in test [1], in test [2], in test [3], in [4], in [5] and in test [6] was > 100 µM (inactive) throughout. The GI50 in test [7], in test [8], in test [9], in test [10], in [11] and in [12] was > 100 µM (inactive) in each case. Also, the GI50 in test [13], in test [14], in test [15], in [16], in test [17] and in [18] was > 100 µM (inactive) each time. Further, the GI50 in test [19] was > 100 µM (inactive).

Take `C=CN1CCN(c2ccccc2)P1(=O)Oc1ccccc1` (stereo not given): the GI50 was > 100 µM (inactive) in [1]; > 100 µM (inactive) in test [2]; 39.9 µM (inactive) in test [3]; > 100 µM (inactive) in test [4]; 50.9 µM (inactive) in [5]; 33.7 µM (inactive) in [6]. Also, the GI50 is > 100 µM (inactive) in test [7]; 92.9 µM (inactive) in test [8]; 31.6 µM (inactive) in test [9]; 48 µM (inactive) in test [10]; 90.6 µM (inactive) in test [11]; > 100 µM (inactive) in [12]. The GI50 is > 100 µM (inactive) in [13]; > 100 µM (inactive) in test [14]; > 100 µM (inactive) in [15]; > 100 µM (inactive) in test [16]; 63.7 µM (inactive) in [17]; > 100 µM (inactive) in test [18]. Also, in test [19], the GI50 is > 100 µM (inactive).

For `CC(=O)OCC1OC(OC2CC3C(C)(C)C(O)CC[C@]3(C)C3CCC45CC4(CCC5[C@@H](C)CC(O)C(O)C(C)(C)O)[C@]23C)C(O)C(O)C1O` (stereo not given in full), the GI50 in test [1], in test [2], in test [3], in [4], in [5] and in test [6] was > 10 µM (inactive) each time. Further, the GI50 in test [7], in test [8], in test [9], in [10], in test [11] and in [12] was > 10 µM (inactive) each time. Moreover, the GI50 in [13], in test [14], in [15], in test [16], in test [17] and in test [18] was > 10 µM (inactive) in each case. Moreover, the GI50 in test [19] was > 10 µM (inactive).

In the case of `O=C(/C=C/c1cccc(Br)c1)N1CCN(CCOC(c2ccccc2)c2ccccc2)CC1`, the GI50 was 42 µM (inactive) in [1]; 40.1 µM (inactive) in test [2]; > 100 µM (inactive) in test [3]; 17.5 µM (inactive) in test [4]; 23 µM (inactive) in test [5]; > 100 µM (inactive) in test [6]. For the same molecule, the GI50 in test [7] was 12.2 µM (inactive); in test [8], 21.6 µM (inactive); in [9], 29.1 µM (inactive); in test [10], 29.3 µM (inactive); in test [11] it was 38.7 µM (inactive); in test [12], > 100 µM (inactive). The GI50 is 26.5 µM (inactive) in [13]; 37.5 µM (inactive) in test [14]; 36.4 µM (inactive) in test [15]; > 100 µM (inactive) in [16]; 23.6 µM (inactive) in test [17]; 50.5 µM (inactive) in test [18]. Besides, in test [19], the GI50 was > 100 µM (inactive).

On to `COc1ccc2c(C)cc(N/N=C/c3ccc(C)s3)nc2c1`, for which the GI50 was 12.3 µM (inactive) in test [1]; 5.89 µM (inactive) in [2]; 19 µM (inactive) in test [3]; 2.81 µM (inactive) in test [4]; 19.5 µM (inactive) in test [5]; 31.6 µM (inactive) in test [6]. The GI50 in test [7] is 3.55 µM (inactive); in test [8] it was 3.21 µM (inactive); in test [9], 3.45 µM (inactive); in [10], 5.92 µM (inactive); in test [11], 16.3 µM (inactive); in test [12], 24.7 µM (inactive). The GI50 in test [13] is 24.3 µM (inactive); in test [14], 6.49 µM (inactive); in test [15] it was 17.7 µM (inactive); in test [16], 25.4 µM (inactive); in test [17], 6.53 µM (inactive); in test [18], 2.94 µM (inactive). Also, the GI50 in test [19] was 13.5 µM (inactive).

With `CC(CC=O)Nc1nn2c(=O)c3ccccc3nc2s1` (stereo not given), the GI50 in test [1], in [2], in test [3], in test [4], in [5] and in test [6] was > 100 µM (inactive) throughout. Also, the GI50 in [7], in test [8], in [9], in test [10], in test [11] and in [12] was > 100 µM (inactive) in each case. Moreover, the GI50 in test [13], in test [14], in [15], in [16], in test [17] and in [18] was > 100 µM (inactive) in each case. For the same molecule, the GI50 in test [19] is > 100 µM (inactive).
